For the assay, the target named is human KOR receptor (Homo sapiens, UniProt P41145). The assay can be described thus: IP-One HTRF assay, potency of KOR agonists, dose-response in transiently transfected COS-7 cells. Format: cell-based. (In general: In TR-FRET formats the signal depends on donor and acceptor labels being close together.)
Chain of human KOR receptor (P41145 whole entry): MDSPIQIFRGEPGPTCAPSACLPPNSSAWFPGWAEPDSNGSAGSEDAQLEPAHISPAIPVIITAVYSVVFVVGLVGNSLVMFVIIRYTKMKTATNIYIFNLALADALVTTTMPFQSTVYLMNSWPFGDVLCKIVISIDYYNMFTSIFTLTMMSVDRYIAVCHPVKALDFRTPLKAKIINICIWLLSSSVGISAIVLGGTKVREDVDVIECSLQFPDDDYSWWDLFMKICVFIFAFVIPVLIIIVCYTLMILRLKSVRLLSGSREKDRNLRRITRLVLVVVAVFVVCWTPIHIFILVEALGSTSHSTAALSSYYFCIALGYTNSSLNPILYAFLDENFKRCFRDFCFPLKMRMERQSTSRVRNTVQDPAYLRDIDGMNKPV

One may read the EC50 as the concentration that produces a half-maximal response. Read a high EC50 as a less potent agent. For `O=C1CS(=O)(=O)c2ccc(CC(=O)N[C@H](CN3CCCC3)c3ccccc3)cc2N1` [Example 121, (S)-2-(1,1-dioxido-3-oxo-3,4-dihydro-2H-benzo[b][1,4]thiazin-6-yl)-N-(1-phenyl-2-(pyrrolidin-1-yl)ethyl)acetamide], the EC50 is not above 50 nM. `CN(C(=O)Cc1ccc2sc(=O)[nH]c2c1)[C@H](CN1CC[C@H](O)C1)c1cccc(OCC(=O)O)c1` [Example 166, 2-(3-((S)-2-((S)-3-hydroxypyrrolidin-1-yl)-1-(N-methyl-2-(2-oxo-2,3-dihydrobenzo [d]thiazol-5-yl)acetamido)ethyl)phenoxy)acetic acid] came in with an EC50 not above 50 nM. Turning to `CN(C(=O)Cc1ccc2c(c1)NC(=O)C2)[C@H](CN1CC[C@H](F)C1)c1cccc(C(N)=O)c1` [Example 165, 3-((S)-2-((S)-3-fluoropyrrolidin-1-yl)-1-(N-methyl-2-(2-oxoindolin-6-yl)acetamido)ethyl)benzamide], the half-maximal effective concentration (EC50) fell in the range of 101 to 1000 nM. Consider `Cc1csc(-c2cccc([C@@H](CN3CC[C@H](O)C3)N(C)C(=O)Cc3ccc4c(c3)NC(=O)C4)c2)n1` [Example 218, N-((S)-2-((S)-3-hydroxypyrrolidin-1-yl)-1-(3-(4-methylthiazol-2-yl)phenyl)ethyl)-N-methyl-2-(2-oxoindolin-6-yl)acetamide], for which the EC50 was not above 50 nM.

As to `CN(C(=O)Cc1ccc2c(c1)NC(=O)CS2)[C@H](CN1CC[C@H](O)C1)c1cccc(C(=O)O)c1` [Example 154, 3-((S)-2-((S)-3-hydroxypyrrolidin-1-yl)-1-(N-methyl-2-(3-oxo-3,4-dihydro-2H-benzo[b][1,4]thiazin-6-yl)acetamido)ethyl)benzoic acid], the EC50 was not above 50 nM. The molecule `CCN(CC)C(=O)COc1cccc([C@@H](CN2CC[C@H](O)C2)N(C)C(=O)Cc2ccc3sc(=O)[nH]c3c2)c1` [Example 42, N-((S)-1-(3-(2-(diethylamino)-2-oxoethoxy)phenyl)-2-((S)-3-hydroxypyrrolidin-1-yl)ethyl)-N-methyl-2-(2-oxo-2,3-dihydrobenzo[d]thiazol-5-yl)acetamide] yielded a concentration giving a half-maximal response (EC50) not above 50 nM.

For the molecule `C#Cc1cccc([C@@H](CN2CC[C@H](O)C2)N(C)C(=O)Cc2ccc3c(c2)NS(=O)(=O)C3)c1` [Example 182, 2-(2,2-dioxido-1,3-dihydrobenzo[c]isothiazol-6-yl)-N-((S)-1-(3-ethynylphenyl)-2-((S)-3-hydroxypyrrolidin-1-yl)ethyl)-N-methylacetamide], the concentration for a half-maximal effect (EC50) was not above 50 nM. Molecule `CN(C(=O)Cc1ccc2c(c1)NC(=O)C2)[C@H](CN1CC[C@H](F)C1)c1cccc(OCC(=O)NS(C)(=O)=O)c1` [Example 162, N-((S)-2-((S)-3-fluoropyrrolidin-1-yl)-1-(3-(2-(methylsulfonamido)-2-oxoethoxy)phenyl)ethyl)-N-methyl-2-(2-oxoindolin-6-yl)acetamide] had an EC50 not above 50 nM. With `CN(C(=O)Cc1ccc2c(c1)NS(=O)(=O)C2)[C@H](CN1CC[C@H](O)C1)c1cccc(C#N)c1` [Example 203, N-((S)-1-(3-cyanophenyl)-2-((S)-3-hydroxypyrrolidin-1-yl)ethyl)-2-(2,2-dioxido-1,3-dihydrobenzo[c]isothiazol-6-yl)-N-methylacetamide] the figure was not above 50 nM. `CN(C(=O)Cc1ccc2sc(=O)[nH]c2c1)[C@H](CN1CC[C@H](O)C1)c1cccc(C(=O)O)c1` [Example 18, 3-((S)-2-((S)-3-hydroxypyrrolidin-1-yl)-1-(N-methyl-2-(2-oxo-2,3-dihydrobenzo[d]thiazol-5-yl)acetamido)ethyl)benzoic acid] had a 50% effective concentration (EC50) not above 50 nM. Consider `CC(C)(C)OC(=O)COc1cccc(C(CN2CC[C@H](O)C2)NC(=O)Cc2ccc3oc(=O)[nH]c3c2)c1` (mixture of isomers) [Example 74, (S)-tert-butyl 2-(3-(2-(3-hydroxypyrrolidin-1-yl)-1-(2-(2-oxo-2,3-dihydrobenzo[d]oxazol-5-yl)acetamido)ethyl)phenoxy)acetate], for which the EC50 is not above 50 nM. In turn, `CN(C(=O)Cc1ccc2sc(=O)[nH]c2c1)[C@H](CN1CC[C@H](O)C1)c1cccc(-c2ncon2)c1` [Example 189, N-((S)-1-(3-(1,2,4-oxadiazol-3-yl)phenyl)-2-((S)-3-hydroxypyrrolidin-1-yl)ethyl)-N-methyl-2-(2-oxo-2,3-dihydrobenzo[d]thiazol-5-yl)acetamide 2,2,2-trifluoroacetate] registered a concentration for a half-maximal effect (EC50) not above 50 nM. Regarding `Cc1noc(-c2cccc([C@@H](CN3CC[C@H](O)C3)N(C)C(=O)Cc3ccc4c(c3)NC(=O)C4)c2)n1` [Example 227, N-((S)-2-((S)-3-hydroxypyrrolidin-1-yl)-1-(3-(3-methyl-1,2,4-oxadiazol-5-yl)phenyl)ethyl)-N-methyl-2-(2-oxoindolin-6-yl)acetamide], the EC50 was not above 50 nM. Turning to `CCN(CC)C(=O)c1cccc([C@@H](CN2CC[C@H](O)C2)N(C)C(=O)Cc2ccc3c(c2)NC(=O)C3)c1` [Example 39, N,N-diethyl-3-((S)-2-((S)-3-hydroxypyrrolidin-1-yl)-1-(N-methyl-2-(2-oxoindolin-6-yl)acetamido)ethyl)benzamide], the half-maximal effective concentration (EC50) was not above 50 nM.

Turning to `CN(C)C(=O)c1cccc([C@@H](CN2CC[C@H](O)C2)N(C)C(=O)Cc2ccc3ncc(=O)[nH]c3c2)c1` [Example 211, 3-((S)-2-((S)-3-hydroxypyrrolidin-1-yl)-1-(N-methyl-2-(3-oxo-3,4-dihydroquinoxalin-6-yl)acetamido)ethyl)-N,N-dimethylbenzamide], the EC50 is not above 50 nM. The figure for `CN(C(=O)Cc1ccc2c(c1)NC(=O)CS2(=O)=O)[C@H](CN1CC[C@H](O)C1)c1cccc(OC(F)(F)F)c1` [Example 5, 2-(1,1-dioxido-3-oxo-3,4-dihydro-2H-benzo [b][1,4]thiazin-6-yl)-N-((S)-2-((S)-3-hydroxypyrrolidin-1-yl)-1-(3-(trifluoromethoxy)phenyl)ethyl)-N-methylacetamide] is not above 50 nM. Regarding `CN(C(=O)Cc1ccc2c(c1)NC(=O)C2)[C@H](CN1CC[C@H](O)C1)c1cccc(-c2cscn2)c1` [Example 217, N-((S)-2-((S)-3-hydroxypyrrolidin-1-yl)-1-(3-(thiazol-4-yl)phenyl)ethyl)-N-methyl-2-(2-oxoindolin-6-yl)acetamide], the concentration giving a half-maximal response (EC50) was not above 50 nM.

For `CN(C(=O)Cc1ccc2c(c1)NC(=O)CS2(=O)=O)C(CN1CCC(O)C1)c1cccc(C2CC2)c1` (stereo in doubt) [Example 150, N-((S)-1-(3-cyclopropylphenyl)-2-((S)-3-hydroxypyrrolidin-1-yl)ethyl)-2-(1,1-dioxido-3-oxo-3,4-dihydro-2H-benzo[b][1,4]thiazin-6-yl)-N-methylacetamide], the concentration for a half-maximal effect (EC50) is not above 50 nM. The figure for `CN(C(=O)Cc1ccc2c(c1)NC(=O)C2)[C@H](CN1CC[C@H](O)C1)c1cccc(C#N)c1` [Example 156, N-((S)-1-(3-cyanophenyl)-2-((S)-3-hydroxypyrrolidin-1-yl)ethyl)-N-methyl-2-(2-oxoindolin-6-yl)acetamide] is not above 50 nM; for `CN(C(=O)Cc1ccc2c(c1)NC(=O)CS2(=O)=O)[C@H](CN1CC[C@H](O)C1)c1cccc(OCC(N)=O)c1` [Example 168, N-((S)-1-(3-(2-amino-2-oxoethoxy)phenyl)-2-((S)-3-hydroxypyrrolidin-1-yl)ethyl)-2-(1,1-dioxido-3-oxo-3,4-dihydro-2H-benzo[b][1,4]thiazin-6-yl)-N-methylacetamide] it is not above 50 nM. In the case of `O=C1CS(=O)(=O)c2ccc(CC(=O)N(CC3CC3)[C@H](CN3CCC(O)C3)c3cccc(OC(F)(F)F)c3)cc2N1` (stereo in doubt) [Example 141, N-(cyclopropylmethyl)-2-(1,1-dioxido-3-oxo-3,4-dihydro-2H-benzo[b][1,4]thiazin-6-yl)-N-((S)-2-((S)-3-hydroxypyrrolidin-1-yl)-1-(3-(trifluoromethoxy)phenyl)ethyl)acetamide], the 50% effective concentration (EC50) is not above 50 nM. The molecule `CN(C(=O)Cc1ccc2c(c1)NC(=O)CS2(=O)=O)[C@H](CN1CC[C@H](O)C1)c1cccc(OCC(=O)O)c1` [Example 22, 2-(3-((S)-1-(2-(1,1-dioxido-3-oxo-3,4-dihydro-2H-benzo[b][1,4]thiazin-6-yl)-N-methylacetamido)-2-((S)-3-hydroxypyrrolidin-1-yl)ethyl)phenoxy)acetic acid] yielded an EC50 not above 50 nM. In turn, `O=C(Cc1ccc2c(c1)NC(=O)C2(F)F)N[C@H](CN1CC[C@H](O)C1)c1ccccc1` [Example 13, 2-(3,3-difluoro-2-oxoindolin-6-yl)-N-((S)-2-((S)-3-hydroxypyrrolidin-1-yl)-1-phenylethyl)acetamide] gave an EC50 not below 1000 nM. With `CN(C(=O)Cc1ccc2c(c1)NC(=O)C2)[C@H](CN1CC[C@H](O)C1)c1cccc(-c2cncn2C)c1` [Example 222, N-((S)-2-((S)-3-hydroxypyrrolidin-1-yl)-1-(3-(1-methyl-1H-imidazol-5-yl)phenyl)ethyl)-N-methyl-2-(2-oxoindolin-6-yl)acetamide], the EC50 was not above 50 nM.

`CN(C(=O)Cc1ccc2sc(=O)[nH]c2c1)[C@H](CN1CC[C@H](O)C1)c1cccc(C(N)=O)c1` [Example 19, 3-((S)-2-((S)-3-hydroxypyrrolidin-1-yl)-1-(N-methyl-2-(2-oxo-2,3-dihydrobenzo [d]thiazol-5-yl)acetamido)ethyl)benzamide] registered an EC50 not above 50 nM. With `Cc1cnc(-c2cccc([C@@H](CN3CC[C@H](O)C3)N(C)C(=O)Cc3ccc4c(c3)NC(=O)C4)c2)s1` [Example 215, N-((S)-2-((S)-3-hydroxypyrrolidin-1-yl)-1-(3-(5-methylthiazol-2-yl)phenyl)ethyl)-N-methyl-2-(2-oxoindolin-6-yl)acetamide] the figure was not above 50 nM; with `Cc1nnc(-c2cccc([C@@H](CN3CC[C@H](O)C3)N(C)C(=O)Cc3ccc4c(c3)NC(=O)C4)c2)o1` [Example 224, N-((S)-2-((S)-3-hydroxypyrrolidin-1-yl)-1-(3-(5-methyl-1,3,4-oxadiazol-2-yl)phenyl)ethyl)-N-methyl-2-(2-oxoindolin-6-yl)acetamide], not above 50 nM; with `CN(C(=O)Cc1ccc2sc(=O)[nH]c2c1)[C@H](CN1CC[C@H](O)C1)c1cccc(OCC(N)=O)c1` [Example 170, N-((S)-1-(3-(2-amino-2-oxoethoxy)phenyl)-2-((S)-3-hydroxypyrrolidin-1-yl)ethyl)-N-methyl-2-(2-oxo-2,3-dihydrobenzo[d]thiazol-5-yl)acetamide], not above 50 nM.

Source of the values: US9487510B2, “Substituted heterocyclic acetamides as kappa opioid receptor (KOR) agonists” (Dr. Reddy's Laboratories Ltd., priority 2012, dated 2016).
